In this test the target is T1, tumor necrosis factor receptor type 1 (TNF-R1) (Homo sapiens, UniProt P19438).
T1 sequence (P19438 30-455): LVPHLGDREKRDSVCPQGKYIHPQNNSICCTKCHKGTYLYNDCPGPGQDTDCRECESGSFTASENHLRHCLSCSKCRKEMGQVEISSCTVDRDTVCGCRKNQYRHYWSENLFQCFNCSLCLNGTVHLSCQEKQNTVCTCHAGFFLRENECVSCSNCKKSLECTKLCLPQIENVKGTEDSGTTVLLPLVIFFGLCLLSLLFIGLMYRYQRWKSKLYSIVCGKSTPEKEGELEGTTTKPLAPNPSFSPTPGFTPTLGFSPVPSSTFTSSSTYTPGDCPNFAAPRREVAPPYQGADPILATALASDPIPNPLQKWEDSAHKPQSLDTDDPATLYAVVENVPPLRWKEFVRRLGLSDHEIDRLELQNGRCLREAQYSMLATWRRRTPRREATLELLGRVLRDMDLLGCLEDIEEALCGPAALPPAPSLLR
Nature of the test: SPR. The test is classed as binding.

The record followed here is PMC9257445 (Journal of Pharmaceutical Analysis, 2021).

Regarding `COc1ccc(C(C)=O)c(O)c1` [paeonol], binding was characterised by a dissociation constant (Kd) of 11.8 µM.

The Kd is the constant that tells how readily two partners part at equilibrium. High values mean a looser complex, low ones a tighter complex.
